Series [1] is described as follows: plasma protein binding (ultrafiltration). Format: in vitro ADME. To be noted: for fraction unbound at 1 h, 250 μg/L / fraction unbound at 1 h, 1000 μg/L / fraction unbound at 1 h: rabbit, plasma; for fraction unbound at 1 h, 250 μg/L / fraction unbound at 1 h, 1000 μg/L: n = 3, read-out: Plasma protein binding (% bound) (converted). As to the method: The remaining volume of the plasma samples obtained by centrifugation in the blood to plasma partition experiment, about 600 μL, was immediately placed in disposable ultrafiltration devices (Centrifree®, EMD Millipore Corp., Billerica, MA, USA), and centrifuged in a temperature controlled centrifuge at 37 °C. The ultrafiltrate collected in the ultrafiltration device cup was stored at −20 °C until analysis. The plasma protein binding for the three compounds in rabbit plasma was determined in triplicates at two different concentrations. The total (free + bound) plasma concentration is the concentration in the plasma samples obtained by centrifugation in the blood to plasma partition experiment, while the free (unbound) concentration is the concentration in the ultrafiltrate. The percentage bound was calculated from the free concentration and the corresponding total concentration according to Equation (1). (1) % Bound = Total concentration−Free concentration/Total concentration × 100

Details of series [2]: method as in unpublished data from our laboratory. To be noted: rabbit urine after IV administration; ref unpublished data from our laboratory; cited from earlier work.
The test system of the next series is Escherichia coli. Further details: method as in PMID 12467705, PMID 15911326, PMID 17140706, PMID 19376613, PMID 23811087. To be noted: cited from earlier work.
Another series concerns S. aureus Giorgio. Further details: method as in ref unpublished data from Jin-Hwan Kwak at Handong Global University. To be noted: oral suspension 1 and 4 h after infection, survival recorded for 72 h; ref unpublished data from Jin-Hwan Kwak at Handong Global University; cited from earlier work.
Series [3] has as its system Staphylococcus aureus and Enterococci spp. Further details: method as in PMID 12467705, PMID 15911326, PMID 17140706, PMID 19376613, PMID 23811087. To be noted: clinical isolates; cited from earlier work.
Series [4] in a line: tissue to plasma distribution. Format: in vivo. The note with it: New Zealand White, rabbit, 2 x 10 mg/kg IV, 2 h after second dose, n = 3. The method, then: Three groups of White New Zealand rabbits (n = 3, each) weighing 3.0–3.5 kg were used. Each group received 10 mg/kg of one compounds administered intravenously over a period of 3–5 min, followed one hour later by a second IV dose of 10 mg/kg. Two h later, the rabbits were euthanized with an IV dose of pentobarbital. Plasma and tissue samples, including kidney, liver, lungs, spleen, heart, muscles, and vetrus fluid were collected immediately, and stored at −80 °C until analysis.
Plasma ultra-filtrate samples were analyzed using the same procedures for the plasma. Tissue homogenates were prepared by adding 1 gm of the tissues samples to 4 g of phosphate buffer, pH 7.4 (1:4, w/w), then homogenization using Tissue-Tearor, Bio-Spec Products Inc. (Bartlesville, OK, USA). Aliquots of 200 μL of tissue homogenate samples were analyzed using the procedures for the plasma and the concentrations were determined using plasma calibrators as described and validated previously for Lzd and PH027 [18].
The tissue to plasma concentration ratios for the three compounds were calculated from the ratio of the tissue homogenate concentrations corrected for the dilution during the homoginization process and the plasma concentrations. Generally, the three compounds have very good distribution to all tissues. The tissue to plasma distribution ratios for the novel compounds were more than one in kidney, lung, liver, heart, muscles and spleen, and the ratios were more than those for Lzd in all investigated tissues. Table 3, summerizes the tissue to plasma distribution ratios for the three compounds in different tissues.

Series [5] in a line: pharmacokinetics after single IV administration. To be noted: rabbit, 5 mg/kg; for AUC / half-life / k el: plasma; for AUC / half-life / CLT: n = 4; for k el: n = 4, read-out: Elimination rate constant (converted). Format: in vivo. The text has this:
IV administration of the compounds under investigation, and collection of blood samples were through a catheter inserted in the marginal ear vein of the rabbit (I-Cath, CharterMed Inc., Winston-Salem, NC, USA). After IV drug administration, blood was withdrawn to fill the cannula and then reinjected three times before obtaining any blood samples to prevent contamination. Furthermore, the cannula was flushed with heparinized saline to prevent blockage of the cannula and prevent sample to sample contamination.
Urine samples were collected utilizing Foly Catheter (size French 8). The catheter was inserted into the rabbit bladder using a lubricant. When urine is collected over a specific time interval, the bladder was irrigated with 3 × 15 mL normal saline at 3 min, 6 min, and 10 min before the end of the urine collection interval [15, 16]. Irrigation of the bladder is necessary to obtain the majority of the drug eliminated in urine during the collection interval.
Three groups of rabbits (n = 4, each) received 5 mg/kg dose of each compound via the IV catheter. This dose was selected based on the results of a preliminary experiment to achieve measurable plasma concentrations for 8 h using our analytical methods, to ensure good characterization of the plasma concentration-time profile. Accurately weighed Lzd and PH027 powder were dissolved first in 600 μL of ethanol using an ultrasound water bath. The resulting solution was then diluted with normal saline to produce the solutions used for IV administration, which consist of the dose of the compound dissolved in 3 mL of 20% ethanol in normal saline. PH051 required the use of slightly larger volume of ethanol to achieve complete dissolution. So, 900 μL of ethanol were used, and the resulting solution used for IV administration consisted of PH051 dose dissolved in 3 mL of 30% ethanol in normal saline. The difference in the volume of ethanol administered, 300 μL, which was necessary to ensure complete dissolution of PH051, should not have a significant effect on the pharmacokinetic behavior of PH051. The solutions were administered slowly over a period of […] administration, serial blood and urine samples were obtained over a period of 8 h. Plasma was obtained from blood by centrifugation, and samples were kept at −80 °C until analysis. The volumes of urine samples were determined and recorded, and aliquots were kept at −80 °C until analysis.
The pharmacokinetic parameters for each of the three compounds including half-life (t1/2), volume of distribution (Vd), elimination rate constant (k), area under the plasma concentration-time curve (AUC), total body clearance (CLT), renal clearance (CLR), and oral bioavailability (F) were determined using the general pharmacokinetic parameter calculation procedures using PKPD tools for Microsoft Excel. The obtained pharmacokinetic parameters for each compound were compared using Statistical Package of Social Sciences (SPSS) to determine the difference in the pharmacokinetic behavior for the three compounds.

The mark [6] stands for this setting: brain, read-out: Tissue to Plasma Concentration Ratio, Brain.
The mark [7] stands for this setting: eye (vitreous fluid), read-out: Tissue to Plasma Concentration Ratio, Eye (vetrus fluid).
Setting [8] is: heart, read-out: Tissue to Plasma Concentration Ratio, Heart.
Where [9] appears, read: kidney, read-out: Tissue to Plasma Concentration Ratio, Kidney.
Setting [10] is: liver, read-out: Tissue to Plasma Concentration Ratio, Liver.
Where [11] appears, read: lung, read-out: Tissue to Plasma Concentration Ratio, Lung.
The mark [12] stands for this setting: muscle, read-out: Tissue to Plasma Concentration Ratio, Muscles.
Setting [13] is: spleen, read-out: Tissue to Plasma Concentration Ratio, Spleen.

Where two headings read alike, the source gives them in different places.

For the compound `O=C1O[C@@H](Cn2ccnn2)CN1c1ccc(N2CCN(C(=O)C(F)(F)F)CC2)c(F)c1` [PH051], the plasma protein binding in series [1] (rabbit plasma, over both concentrations) was determined as 91%. Besides, in series [1], the fraction unbound at 1 h, 250 μg/L is 0.089. The fraction unbound at 1 h, 1000 μg/L in series [1] was 0.091 ± 0.0019. The fraction unbound at 1 h in series [1] (over both concentrations) was in the range of 0.09 to 0.1. The main metabolic route result in series [2] is given as “amide hydrolysis”. Also, the MIC in the series on Escherichia coli was above 64 µg/mL; in series [3] it was 0.25 to 0.5 µg/mL. Besides, the “in vivo activity against systemic mice infection” value with S. aureus Giorgio is recorded as “lower in vivo activity”. Further, the Kp at 2 h in series [4] (setting [6]) stood at 0.179 ± 0.07; in series [4] (setting [7]) it was 0.81 ± 0.11; in series [4] (setting [8]), 1.56 ± 0.22; in series [4] (setting [9]), 2.22 ± 0.063; in series [4] (setting [10]), 1.7 ± 0.19; in series [4] (setting [11]) it was 1.5 ± 0.16. Besides, the values for the Kp at 2 h in series [4] (setting [12]) and in series [4] (setting [13]) were 1.58 ± 0.21 and 1.41 ± 0.27, respectively. The compound further showed an AUC in series [5] (White New Zealand) of 1950 ± 986 ng·h/mL. Also, in series [5] (White New Zealand), the half-life worked out at 2.92 ± 0.768 h. The k el in series [5] (White New Zealand) was 6.6e-05 s⁻¹. The same compound had a CLT in series [5] of 42.73 ± 20.2 mL/min/kg. For the same compound, in series [5] (ratio of renal clearance to total body clearance), the “Fraction excreted unchanged in urine” value is on record as “only trace amounts”.

Consider `O=C1O[C@@H](Cn2ccnn2)CN1c1ccc(N2CCOCC2)c(F)c1` [PH027], for which the fraction unbound at 1 h, 250 μg/L in series [1] is 0.613. In addition, in series [1], the fraction unbound at 1 h, 1000 μg/L is 0.622. For the same compound, in series [1] (over both concentrations), the fraction unbound at 1 h is 0.62 to 0.63. In series [2], the main metabolic route result is “metabolized mainly through oxidation”. In addition, the MIC was above 64 µg/mL in the series with Escherichia coli and 0.5 to 1.0 µg/mL in series [3]. Also, the “in vivo activity against systemic mice infection” value in the series on S. aureus Giorgio is “lower in vivo activity”. For the same compound, the Kp at 2 h was found to be 0.223 ± 0.016 in series [4] (setting [6]); 0.989 ± 0.1 in series [4] (setting [7]); 1.36 ± 0.087 in series [4] (setting [8]); 2.78 ± 0.089 in series [4] (setting [9]); 2.91 ± 0.168 in series [4] (setting [10]); 1.59 ± 0.041 in series [4] (setting [11]). In addition, the Kp at 2 h was 1.25 ± 0.059 in series [4] (setting [12]) and 1.51 ± 0.026 in series [4] (setting [13]). The same compound had an exposure (AUC) in series [5] (White New Zealand) of 5670 ± 933 ng·h/mL. In addition, the half-life in series [5] (White New Zealand) was determined as 1.15 ± 0.202 h. Also, the k el in series [5] (White New Zealand) was 0.000168 s⁻¹. Also, the CL renal in series [5] (White New Zealand, urine and plasma, from renal excretion rate and plasma drug concentration, read-out: Renal clearance (converted)) is 0.0633 mL/min/kg. Also, the CLT in series [5] was 14.7 ± 3.83 mL/min/kg.

These data come from article PMC5620575 (Pharmaceutics, 2017).
